Measurements taken from US4765972A (priority 1986, dated 1988).

Experiments:
[1] = test system: 150-180 kDa surface membrane glycoprotein (gp150-180); assay: Photoaffinity labelling of purified plasma membranes with ^125 I-NASV; format: binding, Chinese hamster; details: for increase of radiolabelling of the 150-180 kDa component versus drug-sensitive parental cells: plasma membranes
Method: (§1) Cell lines were cultured as described by Peterson et al., Cancer Res. 43, 222-228 (1983) and by Meyers et al., J. Cell. Biol. 100, 588-597 (1985). Vincristine-resistant (DC-3F/VCRd-5L, 2750-fold resistant) and actinomycin D-resistant (DC=3F/ADX, 2450-fold resistant) variants were selected from Chinese hamster lung (DC-3F) cells as described in the above-cited articles. The drug-sensitive revertant (DC-3F/ADX-U, 30-fold resistant to actinomycin D) was obtained from DC-3F/ADX cells grown in the absence of drugs. The resistant cells expressed a typical multidrug-resistant phenotype as typified by cross-resistance to a number of unrelated natural product compounds. Whole cell particulate fractions were prepared by the sonication of drug-sensitive or drug-resistant cells in 50 mM potassium phosphate buffer (pH 7.4), followed by centrifugation at 100,000×g for one hour. The particulate pellet was washed by resuspending in the same buffer, and the whole cell particulate fraction was obtained by a second centrifugation. Purified plasma membranes were prepared by sucrose density gradient centrifugation as described in Peterson et al in J. Supramolecular Structure 9, 289-298 (1978). Protein concentrations were determined by the procedure of Lowry et al., J. Biol. Chem., 193, 265-275 (1951).
Photolabelling of membrane samples (50 micrograms protein) was performed in 40 nM potassium phosphate buffer (pH 7.0) containing 4% Me2 SO and 50 nM of either ^3 H-NABV (0.1 microCi) or ^125 I-NASV (0.2 microCi) in a final volume of 0.050 ml. […] SDS-PAGE of 5-15% gradient gels containing 4.5 M urea, fluorography, and autoradiography were performed as described by Felsted et al. in Blood 66, 606-613 (1985). The quantitation of radiolabelling was accomplished by cutting appropriate areas from the gel and counting the pieces in a gamma counter.
A plasma membrane localization for the 150-180 kDa component was established by photoaffinity labelling sucrose density gradient purified plasma membranes from drug-sensitive and drug-resistant cells with ^3 H-NABV. […] These membranes, as well as membranes from another multidrug-resistant variant (DC-3F/ADX) originally selected for resistance to actinomycin D and from a revertant (DC-3F/ADX-U) obtained from the DC-3F/ADX variant were also photoaffinity labelled with ^125 I-NASV. […] In contrast, radiolabelling of the 150-180 kDa component in the DC-3F/ADX-U revertant cells was increased by only about 15-fold. […] In other studies, a number of drug-sensitive cell lines have been shown by immunoblottings to have barely detectable levels of analogous 150-180 kDa surface membrane glycoproteins compared to the corresponding multidrug-resistant variants. […]

[2] = test system: 54.3 kDa polypeptide (tubulin subunit); assay: Photolabelling of calf brain homogenate with ^3 H-NABV, 54.3 kDa polypeptide; format: binding
Method: (§2) Tissue homogenate high speed supernatant and pellet fractions were obtained by homogenizing 1 gram of calf brain in 10 ml volumes of 0.05 M potassium phosphate buffer, pH 7.4, for one minute with a Model PCU Polytron homogenizer with a PT-10-ST probe operated at 50% maximum power (Brinkmann Instruments, Westbury, NY). The brain tissue homogenate was collected after filtering through one layer of cheesecloth. Brain tissue high speed supernatant fractions were prepared by centrifuging the homogenates at 100,000×g for 60 minutes at 4° C. The resulting pellet was washed twice with five times its original volume of buffer, and recentrifuged as described. […] and supernatant fractions were stored in small aliquots in liquid nitrogen and thawed only once.
(§3) The standard photolabelling mixture used contained 50 nM ^3 H-NABV (50.6 Ci/mmol), 4% dimethylsulfoxide, […] potassium phosphate buffer, pH 7.0, and 2 mg/ml of tissue homogenate or high speed pellet or supernatant fractions in a final volume of 0.05 ml in polyvinylchloride V-microtiter wells (Dynatech Labs, Inc., Alexandria, VA) in a 25° C. water bath. Photolabelling mixtures were incubated for 15 minutes at 25° C. before photolysis. Photoactivation was performed for 10-20 minutes with a UV light equipped with two 15 W self-filtering 302 nm lamps (Model xx-15, Ultra-Violet Products, Inc., San Gabriel, CA), placed 3.4 cm above the photolabelling mixture. […] Photoactivated samples were immediately processed for SDS-PAGE or frozen at -70° C.
(§4) Equal volumes of SDS sample buffer were added to photolabelled mixtures in microliter wells. The mixtures were transferred to 0.5 ml centrifuge tubes. After heating for five minutes at 100° C. on a heating block, the mixtures were cooled on ice and sonicated for five seconds, cooled, and 0.08 ml aliquots of the mixtures were applied to separate wells of a 1.5 mm thick polyacrylamide slab gel.
(§5) Electrophoresis was performed as described by Laemmli in Nature (Lond.) 227, 680-685 (1970) with a linear polyacrylamide gradient from 9.7% acrylamide, 0.26% bis-acrylamide and 10% glycerol, to 16.6% acrylamide, 0.44% bis-acrylamide, and 17% glycerol using a Bio-Rad slab gel apparatus (Model 220, Richmond, CA) at 8 mA/gel for sixteen hours. Following fixation and staining of the gel, in 0.25% Coomassie brilliant blue, 45% methanol and 10% acetic acid, the lanes of stained polypeptide corresponding to each sample slot were cut and sliced into 1.0 mm slices. Each slice was incubated with 0.3 ml 30% H2 O2 in a closed scintillation vial at 100° C. for one hour to solubilize the gel slice, with radioactivity subsequently quantitated. The molecular weights of radioactive macromolecules were estimated by their mobilities relative to standard proteins of known molecular weights. (Bio-Rad, Richmone, CA). The radioactivity of photolabelled components was quantitated in triplicate by adding the dpm in each 1 mm gel slice through the radioactive peak.
(§6) The specific photolabelling was obtained by subtracting the nonspecific linear curve from the mixed biphasic profile.

[3] = test system: 21.5 kDa polypeptide; assay: Photolabelling of calf brain homogenate with ^3 H-NABV, 21.5 kDa polypeptide; format: binding
Method: as §2, §3, §4, §5, §6

[4] = In-vitro NABV metabolism in calf brain homogenates; format: in vitro ADME; details: dark, 30-60 minutes at 0°, 25°, and 37° C.
Method: In-vitro NABV Metabolism Calf brain homogenates (100 micrograms protein) were incubated with 3H-NABV under standard photolabelling conditions for 30 minutes at 25° C. in the absence of UV light. The mixture was then extracted with 1 ml chloroform and analyzed for radioactive materials in the organic extract by silica gel thin layer chromatography using Solvent I.
This was confirmed by incubating ^3 H-NABV with brain homogenates in the dark for 30-60 minutes at 0°, 25°, and 37° C., subsequently extracting the mixtures with chloroform, and analyzing for radioactive metabolites by silica gel thin layer chromatography and high pressure liquid chromatography. A single radioactive spot corresponded to the Rf of NABV and accounted for more than 98% of the recovered radioactivity.

[5] = test system: 150-180 kDa surface membrane glycoprotein (gp150-180); assay: Photoaffinity labelling of cell particulate fractions / plasma membranes with ^3 H-NABV, competition by vinblastine; format: binding, Chinese hamster
Method: as §1, with “The particulate pellet was washed by resuspending in the same buffer, and the whole cell particulate fraction was obtained by a second centrifugation. Purified plasma membranes were prepared by sucrose density gradient centrifugation as described in Peterson et al in J. Supramolecular Structure 9, 289-298 (1978).” left out
Photolabelling of membrane samples (50 micrograms protein) was performed in 40 nM potassium phosphate buffer (pH 7.0) containing 4% Me2 SO and 50 nM of either ^3 H-NABV (0.1 microCi) or ^125 I-NASV (0.2 microCi) in a final volume of 0.050 ml. […] The quantitation of radiolabelling was accomplished by cutting appropriate areas from the gel and counting the pieces in a gamma counter. […]

[6] = test system: 150-180 kDa surface membrane glycoprotein (gp150-180); assay: Immunoprecipitation of ^125 I-NASV photolabelled, detergent solubilized membranes with antibody specific for gp150-180; format: binding, Chinese hamster; details: DC-3F/VCRd-5L membranes, vinblastine
Method: Immunoprecipitations were performed by extracting membranes (20 micrograms protein) for fifteen minutes at 4° C. with 100 microliters of 50 mM Tris-HCl buffer (pH 7.0) containing 150 mM NaCl, 1% Triton X-100, 1% sodium deoxycholate, 0.1% SDS, 1 mM ethylenediamine tetraacetic acid, 1 mM phenylmethylsulfonylfluoride, and 10 mg/ml Trayslol (Boehringer Mannheim, Indianapolis, IN). The mixtures were then incubated for one hour at 5° C. with 10 microliters rabbit polyclonal antibody specific for multidrug-resistant 150-180 kDa surface membrane glycoprotein (gp150-180).Immune complexe were obtained by incubating the mixture with Protein A-Sepharose (Pharmacia, Piscataway, NJ) for one hour at 5° C. and recovering the beads after washing four times. […]
Photolabelling of membrane samples (50 micrograms protein) was performed in 40 nM potassium phosphate buffer (pH 7.0) containing 4% Me2 SO and 50 nM of either ^3 H-NABV (0.1 microCi) or ^125 I-NASV (0.2 microCi) in a final volume of 0.050 ml. […] The quantitation of radiolabelling was accomplished by cutting appropriate areas from the gel and counting the pieces in a gamma counter.
The radiolabelled 150-180 kDa polypeptide was immunoprecipitated only from membrane extracts of drug-resistant cells. No radioactivity was precipitated when nonimmune serum was used in place of the specific antibody. […]

[7] = test system: P388 murine leukemic cells; assay: Growth inhibition of exponentially growing P388 cells; format: cell-based; details: Mus musculus; 72 hours exposure; exponentially growing P388 cells; read-out: IC50
Source text: Thus, NABV is ideal for probing intracellular Vinca alkaloid interactions because it retains the known biochemical and pharmacological properties of this class of drugs.

[8] = test system: microtubule; assay: In vitro microtubule assembly; format: biochemical; details: both drugs at similar concentrations
[9] = test system: tubulin; assay: Tubulin aggregation; format: biochemical; details: both drugs at similar concentrations
[10] = test system: tubulin; assay: Tubulin-dependent GTP hydrolysis; format: biochemical; details: both drugs at similar concentrations
[11] = corrected for nonspecific labelling, apparent, not a true equilibrium constant, read-out: half maximal saturation photolabelling
[12] = saturation photolabelling experiments
[13] = 0.44 micromoles ^3 H-NABV, competitor 1-22 micromoles

Compound: N-(p-azido-3-[^125 I-]-salicyl-N'-beta-aminoethylvindesine [^125 I-NASV]
- increase of radiolabelling of the 150-180 kDa component versus drug-sensitive parental cells ([1]; DC-3F/ADX-U revertant cells): about 15 fold
- increase of radiolabelling of the 150-180 kDa component versus drug-sensitive parental cells ([1]; drug-resistant variants (DC-3F/VCRd-5L, DC-3F/ADX)): up to 150 fold

Compound: N-(p-azido-[3,4-^3 H]benzoyl)-N'-beta-aminoethylvindesine [^3 H-NABV]
- maximum saturable incorporation [2]: 5.5 pmol ^3 H-NABV bound/mg of calf brain homogenate protein
- Kd [2, 11]: 208 nM
- percent of total labelling ascribed to nonspecific labelling [2, 12]: 48%
- maximum saturable incorporation [3]: 0.9 pmol ^3 H-NABV bound/mg of calf brain homogenate protein
- Kd [3, 11]: 95 nM
- percent of total labelling ascribed to nonspecific labelling [3, 12]: 51%
- metabolism under standard photolabelling conditions [4]: no appreciable metabolism
- recovered radioactivity in the single spot corresponding to the Rf of NABV ([4]; TLC and HPLC): more than 98%

Compound: CC[C@]1(O)C[C@@H]2CN(CCc3c([nH]c4ccccc34)[C@@](C(=O)OC)(c3cc4c(cc3OC)N(C)[C@H]3[C@@](O)(C(=O)OC)[C@H](OC(C)=O)[C@]5(CC)C=CCN6CC[C@]43[C@@H]65)C2)C1 [vinblastine]
- reduction of radiolabelling of the 150-180 kDa component ([5]; sucrose density gradient purified plasma membranes, 10 micromole vinblastine): 59%
- radiolabelling of the 150-180 kDa component in the presence of vinblastine ([5]; whole cell particulate fractions, DC-3F/VCRd-5L, 10 micromoles vinblastine): substantially reduced
- reduction of radiolabelling of the 150-180 kDa component ([1]; drug-resistant variants, ^125 I-NASV, 10 micromoles vinblastine): 80-90%
- radiolabelling of the 150-180 kDa component in the presence of vinblastine ([1]; parental and revertant cells, ^125 I-NASV, 10 micromoles vinblastine): completely absent
- reduction of radiolabel in the immunoprecipitate [6]: 96%
- IC50 [7]: 0.6 nM
- effect on in vitro microtubule assembly [8]: inhibit in vitro microtubule assembly
- effect on tubulin aggregation [9]: induce tubulin aggregation
- effect on tubulin-dependent GTP hydrolysis [10]: inhibit tubulin-dependent GTP hydrolysis

Compound: Nc1ccc(C(=O)O)cc1 [p-aminobenzoic acid]
- reduction of photolabelling by nitrene scavenger ([2]; 100-fold excess over [^3 H]-NABV): 25%
- further reduction of photolabelling by nitrene scavenger ([2]; up to 10^4 -fold molar excess): no significant further reduction
- effect of nitrene scavenger on photolabelling ([3]; 10^3 -fold molar excess): no significant effect
- reduction of photolabelling by nitrene scavenger ([3]; 10^4 -fold molar excess): 30%

Compound: COc1cccc2c1C(=O)c1c(O)c3c(c(O)c1C2=O)C[C@@](O)(C(C)=O)C[C@@H]3O[C@H]1C[C@H](N)[C@H](O)[C@H](C)O1 [daunorubicin]
- effect of increasing concentrations of competitor on photolabelling [2, 13]: negligible effects
- effect of increasing concentrations of competitor on photolabelling [3, 13]: negligible effects
